Test results reported in US12508313B2, “Quinoline derivative-containing pharmaceutical composition” (Eisai R&D Management Co., Ltd., priority 2009, dated 2025).

Assay: Storage stability of capsules, degradants determined by high-performance liquid chromatography
Type: physicochemical
Conditions: Initial (before storage); HPLC
Description: The capsules in Examples 16 to 17 and Comparative Example 6 were stored for 1 week in an open system under an environment at a temperature of 60° C. and a relative humidity of 75%, followed by determining the production of the degradants with high-performance liquid chromatography. In the capsule formulation in Comparative Example 6, in which neither calcium carbonate nor magnesium carbonate was mixed, an amount of the degradants was increased. In contrast, in the capsules in Examples 16 to 17, in which calcium carbonate or magnesium carbonate was mixed, no increase in amount of the degradants was observed (Table 8).

Quantitated compound A (%): 98.38%
Compound: COc1cc2nccc(Oc3ccc(NC(=O)NC4CC4)c(Cl)c3)c2cc1C(N)=O.CS(=O)(=O)O [Compound A, 4-(3-chloro-4-(cyclopropylaminocarbonyl)aminophenoxy)-7-methoxy-6-quinolinecarboxamide methanesulfonate]
